Here are results for 25 molecules from patent publication US10202375B2, “N-pyridinyl acetamide derivatives as Wnt signalling pathway inhibitors” (Redx Pharma PLC, priority 2014, dated 2019).

pIC50: −log10 of the molar value.

One experiment has as its system Wnt pathway (L-Wnt cells producing murine Wnt-3a; Leading Light Wnt Reporter Cells). Description: Dual-Cell β-Catenin Reporter Assay. Particulars: Mus musculus, luciferase signal reduced to 50% of DMSO control; category symbols. It counts as cell-based, Mouse. As for the experimental part: Dual-Cell β-Catenin Reporter Assay
Mouse L cells transfected to constitutively produce biologically active murine Wnt-3a, referred to as L-Wnt cells, were purchased from the American Type Culture Collection, ATCC, Manassas, Va. (ATCC). These cells were cultured in DMEM supplemented with 10% FCS (Gibco/Invitrogen, Carlsbad, Calif.), 1% geneticin and 1% sodium pyruvate (Sigma) at 37° C. with 5% CO2. The cells were seeded into 96 well plates and treated with serial dilutions of compound diluted to 0.1% DMSO concentration. After 24 hours, cell supernatants were transferred to a 96 well plate previously seeded with Leading Light® Wnt Reporter Cells, stably transfected with a luciferase gene under control of Wnt pathway response elements. After a further 24 hours, cells are treated with One-glo luciferase assay system (Promega, Madison, Wis.) and the luminescent signal read by envision.
In general terms: In a reporter assay the amount or activity of a reporter protein is the signal.
A word on the pIC50: it is the IC50 on a negative log10 scale, so that one unit is a factor of ten. A lower pIC50 goes with a large IC50. Regarding `Cc1cc(-c2c(F)cnc3c2ccn3CC(=O)Nc2ccc(-c3cnccn3)cn2)ccn1` [ID No. 2, 2-[5-fluoro-4-(2-methyl-4-pyridyl)pyrrolo[2,3-b]pyridin-1-yl]-N-(5-pyrazin-2-yl-2-pyridyl)acetamide], the pIC50 is > 9.00.

As for `Cc1cc(-c2ccnc3c2ccn3CC(=O)Nc2ccc(-c3cnccn3)nc2)ccn1` [ID No. 17, 2-[4-(2-methyl-4-pyridyl)pyrrolo[2,3-b]pyridin-1-yl]-N-(6-pyrazin-2-yl-3-pyridyl)acetamide], the negative logarithm of the IC50 (pIC50) is > 9.00.

Molecule `Cc1cc(-c2ncnc3c2cnn3CC(=O)Nc2ccc(-c3cnccn3)cn2)ccn1` [ID No. 22, 2-[4-(2-methyl-4-pyridyl)pyrazolo[3,4-d]pyrimidin-1-yl]-N-(5-pyrazin-2-yl-2-pyridyl)acetamide] had a pIC50 of 8.30 to 9.00.

With `Cn1nccc1-c1nccc2c1ccn2CC(=O)Nc1ccc(-c2cnccn2)cn1` [compound 4, 2-[4-(2-methylpyrazol-3-yl)pyrrolo[3,2-c]pyridin-1-yl]-N-(5-pyrazin-2-yl-2-pyridyl)acetamide], the pIC50 was 8.30 to 9.00.

For `Cc1cc(-c2nc(N)nc3c2ccn3CC(=O)Nc2ccc(-c3cnccn3)cn2)ccn1` [compound 8, 2-[2-amino-4-(2-methyl-4-pyridyl)pyrrolo[2,3-d]pyrimidin-7-yl]-N-(5-pyrazin-2-yl-2-pyridyl)acetamide], the negative-log IC50 (pIC50) is > 9.00.

For `Cc1cc(-c2nc(Cl)nc3c2ccn3CC(=O)Nc2ccc(-c3cnccn3)cn2)ccn1` [compound 12, 2-[2-chloro-4-(2-methyl-4-pyridyl)pyrrolo[2,3-d]pyrimidin-7-yl]-N-(5-pyrazin-2-yl-2-pyridyl)acetamide], the pIC50 is > 9.00.

Take `Cc1cc(-c2ncnc3c2cc(C)n3CC(=O)Nc2ccc(-c3cnccn3)cn2)ccn1` [compound 13, 2-[6-methyl-4-(2-methyl-4-pyridyl)pyrrolo[2,3-d]pyrimidin-7-yl]-N-(5-pyrazin-2-yl-2-pyridyl)acetamide]: the pIC50 is < 8.30.

The molecule `Cc1cc(-c2ncnc3c2cnn3CC(=O)Nc2ccc(-c3cnccn3)nc2)ccn1` [compound 14, 2-[4-(2-methyl-4-pyridyl)pyrazolo[3,4-d]pyrimidin-1-yl]-N-(6-pyrazin-2-yl-3-pyridyl)acetamide] had a pIC50 of 8.30 to 9.00.

As for `Cc1cc(-c2ncnc3c2ccn3CC(=O)Nc2ccc(-c3cnccn3)nc2)ccn1` [compound 16, 2-[4-(2-methyl-4-pyridyl)pyrrolo[2,3-d]pyrimidin-7-yl]-N-(6-pyrazin-2-yl-3-pyridyl)acetamide], the pIC50 was < 8.30.

In turn, `Cn1nccc1-c1ncnc2c1ccn2CC(=O)Nc1ccc(-c2cnccn2)cn1` [compound 18, 2-[4-(2-methylpyrazol-3-yl)pyrrolo[2,3-d]pyrimidin-7-yl]-N-(5-pyrazin-2-yl-2-pyridyl)acetamide] gave a pIC50 of 8.30 to 9.00.

In the case of `O=C(Cn1ccc2c(-c3ccnc(C(F)(F)F)c3)ncnc21)Nc1ccc(-c2cnccn2)cn1` [compound 21, N-(5-pyrazin-2-yl-2-pyridyl)-2-[4-[2-(trifluoromethyl)-4-pyridyl]pyrrolo[2,3-d]pyrimidin-7-yl]acetamide], the pIC50 was > 9.00.

As to `Cc1cc(-c2nccc3c2ccn3CC(=O)Nc2ccc(-c3cnccn3)cn2)ccn1` [compound 23, 2-[4-(2-methyl-4-pyridyl)pyrrolo[3,2-c]pyridin-1-yl]-N-(5-pyrazin-2-yl-2-pyridyl)acetamide], the negative-log IC50 (pIC50) was > 9.00.

As to `Cc1cc(-c2cncc3c2ccn3CC(=O)Nc2ccc(-c3cnccn3)cn2)ccn1` [compound 24, 2-[4-(2-methyl-4-pyridyl)pyrrolo[2,3-c]pyridin-1-yl]-N-(5-pyrazin-2-yl-2-pyridyl)acetamide], the negative logarithm of the IC50 (pIC50) is > 9.00.

Take `Cc1cc(-c2ccnc3c2cnn3CC(=O)Nc2ccc(-c3cnccn3)cn2)ccn1` [compound 25, 2-[4-(2-methyl-4-pyridyl)pyrazolo[3,4-b]pyridin-1-yl]-N-(5-pyrazin-2-yl-2-pyridyl)acetamide]: the pIC50 is > 9.00.

Take `Cn1nccc1-c1ccnc2c1ccn2CC(=O)Nc1ccc(-c2cnccn2)cn1` [compound 31, 2-[4-(2-methylpyrazol-3-yl)pyrrolo[2,3-b]pyridin-1-yl]-N-(5-pyrazin-2-yl-2-pyridyl)acetamide]: the pIC50 is > 9.00.

Staying with this experiment, now noted: Mus musculus, luciferase signal reduced to 50% of DMSO control; specific values.
In turn, `Cc1cc(-c2nccc3c2ccn3CC(=O)Nc2ccc(-c3cnccn3)cn2)ccn1` [compound 23, 2-[4-(2-methyl-4-pyridyl)pyrrolo[3,2-c]pyridin-1-yl]-N-(5-pyrazin-2-yl-2-pyridyl)acetamide] gave a pIC50 of 9.37.

Regarding `Cn1nccc1-c1ccnc2c1ccn2CC(=O)Nc1ccc(-c2cnccn2)cn1` [compound 31, 2-[4-(2-methylpyrazol-3-yl)pyrrolo[2,3-b]pyridin-1-yl]-N-(5-pyrazin-2-yl-2-pyridyl)acetamide], the negative logarithm of the IC50 (pIC50) is 9.05. This pIC50 is 0.32 log units lower than that of the molecule before.

Staying with this experiment, now noted: luciferase signal reduced to 50% of DMSO control; category symbols.
In the case of “2-[4-(2-methyl-4-pyridyl)imidazo[4,5-c]pyridin-1-yl]-N-(5-pyrazin-2-yl-2-pyridyl)acetamide [compound 20]”, the negative-log IC50 (pIC50) was 8.30 to 9.00.

“2-[4-(2-methyl-4-pyridyl)pyrazolo[3,4-b]pyridin-1-yl]-N-(6-pyrazin-2-yl-3-pyridyl)acetamide [compound 15]” had a negative-log IC50 (pIC50) of 8.30 to 9.00.

As for “2-[5-methyl-4-(2-methyl-4-pyridyl)pyrrolo[2,3-b]pyridin-1-yl]-N-(5-pyrazin-2-yl-2-pyridyl)acetamide [ID No. 1]”, the pIC50 is > 9.00.

For the molecule “2-[6-methyl-4-(2-methyl-4-pyridyl)pyrrolo[2,3-d]pyrimidin-7-yl]-N-(5-pyrazin-2-yl-2-pyridyl)acetamide [ID No. 13]”, the pIC50 is > 9.00.

Take `Cn1nccc1-c1ccnc2c1cnn2CC(=O)Nc1ccc(-c2cnccn2)cn1` [compound 6, 2-[4-(2-methylpyrazol-3-yl)pyrazolo[3,4-b]pyridin-1-yl]-N-(5-pyrazin-2-yl-2-pyridyl)acetamide]: the pIC50 was < 8.30.

For the molecule `Cc1cc(-c2ccnc3c2ccn3CC(=O)Nc2ccc(-c3cnccn3)nc2)ccn1` [compound 17, 2-[4-(2-methyl-4-pyridyl)pyrrolo[2,3-b]pyridin-1-yl]-N-(6-pyrazin-2-yl-3-pyridyl)acetamide], the pIC50 was 8.30 to 9.00.

`Cc1cc(-c2ncnc3c2ncn3CC(=O)Nc2ccc(-c3cnccn3)cn2)ccn1` [compound 19, 2-[6-(2-methyl-4-pyridyl)purin-9-yl]-N-(5-pyrazin-2-yl-2-pyridyl)acetamide]: the pIC50 was < 8.30.

`Cc1cc(-c2ncnc3c2cnn3CC(=O)Nc2ccc(-c3cnccn3)cn2)ccn1` [compound 22, 2-[4-(2-methyl-4-pyridyl)pyrazolo[3,4-d]pyrimidin-1-yl]-N-(5-pyrazin-2-yl-2-pyridyl)acetamide]: the pIC50 was > 9.00.

Consider `CN1CCN(c2ccnc3c2ccn3CC(=O)Nc2ccc(-c3cnccn3)cn2)CC1` [compound 28, 2-[4-(4-methylpiperazin-1-yl)pyrrolo[2,3-b]pyridin-1-yl]-N-(5-pyrazin-2-yl-2-pyridyl)acetamide], for which the pIC50 is < 8.30.

`CC1CN(c2ccnc3c2ccn3CC(=O)Nc2ccc(-c3cnccn3)cn2)CC(C)N1` (stereo not shown) [compound 29, 2-[4-(3,5-dimethylpiperazin-1-yl)pyrrolo[2,3-b]pyridin-1-yl]-N-(5-pyrazin-2-yl-2-pyridyl)acetamide]: the negative-log IC50 (pIC50) was < 8.30.

The same experiment, now with this note: luciferase signal reduced to 50% of DMSO control; specific values.
The molecule “2-[5-methyl-4-(2-methyl-4-pyridyl)pyrrolo[2,3-b]pyridin-1-yl]-N-(5-pyrazin-2-yl-2-pyridyl)acetamide [ID No. 1]” had a pIC50 of 9.49.
